This is an account of results in article PMC7782499, “Progerinin, an optimized progerin-lamin A binding inhibitor, ameliorates premature senescence phenotypes of Hutchinson-Gilford progeria syndrome” (Communications Biology, 2021).

The target of one data set is T1, progerin-lamin A binding (Homo sapiens, UniProt P02545).
T1 construct: expressed in transfected cells; host or cells: HEK293 (GFP-progerin); the GST-lamin A bait is a recombinant protein, with E. coli B834 (DE3) named for the lamin A/C fragments
T1 sequence (P02545 1-611 isoform P02545-6): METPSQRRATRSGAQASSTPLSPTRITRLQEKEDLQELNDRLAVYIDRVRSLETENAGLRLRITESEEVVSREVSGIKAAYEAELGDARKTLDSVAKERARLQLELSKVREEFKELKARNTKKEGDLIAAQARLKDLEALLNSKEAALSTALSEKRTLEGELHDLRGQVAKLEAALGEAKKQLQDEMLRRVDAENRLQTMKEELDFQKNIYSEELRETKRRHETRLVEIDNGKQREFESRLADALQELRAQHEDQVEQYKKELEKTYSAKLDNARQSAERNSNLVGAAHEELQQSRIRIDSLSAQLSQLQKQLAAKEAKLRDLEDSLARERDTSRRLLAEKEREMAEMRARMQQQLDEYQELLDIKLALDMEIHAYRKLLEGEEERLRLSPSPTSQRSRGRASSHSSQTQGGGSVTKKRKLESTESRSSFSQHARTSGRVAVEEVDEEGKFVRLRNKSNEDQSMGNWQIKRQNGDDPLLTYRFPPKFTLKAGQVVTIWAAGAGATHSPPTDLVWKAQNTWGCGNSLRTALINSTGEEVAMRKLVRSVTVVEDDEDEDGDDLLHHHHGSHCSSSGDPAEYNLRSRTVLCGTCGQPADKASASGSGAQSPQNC
The data set can be described thus: GST pull-down assay of progerin-lamin A binding. To be noted: 5 μM. The procedure: Fig. 1 SLC-D011 ameliorates premature aging features of HGPS. A. HEK293 cells were transiently transfected with expression vector encoding wild-type lamin A (WT-LA), lamin A-C661A (LA-C661A), progerin, or progerin-C611A. LA-C661A or progerin-C611A with point mutation in CaaX motif was predicted to be lack of farnesylation, […] that of authentic WT-LA or progerin. GFP-conjugated empty expression vector was used as a negative control. Cells were visualized at 24 h after transfection. B Transient transfection of HEK293 cells with expression vector encoding progerin or progerin-G611A leads to reduced expression of H3K9me3 (n = 3 independent experiments; two-tailed Student’s t test). C. JH4 derivatives (JH010 and SLC-D011(D011)) inhibit lamin A and progerin interaction. For binding inhibition assay, bead-conjugated lamin A (GST-LA) was incubated with HEK293 cells, transiently transfected with GFP-progerin (PG), and treated with indicated chemicals. Actin was used as a loading control. PPT, co-precipitated materials with recombinant proteins; Sup supernatant. 5 μM of each chemical was used for binding assay. […] H3K9me3 reduction is a well-known marker for premature aged cells. Thus, H3K9me3 expression was evaluated by immunostaining. […] Cell viability was determined by MTT assay after incubation with chemicals for 7 days (n = 3 independent experiments; two-tailed Student’s t test). […]

Data set [1] in a line: Solubility and stability of SLC-D011 in water and monoolein-based solution. It is filed as physicochemical. How it is done:
Fig. S9. In vitro ADME results of SLC-D011 via oral administration. A. Formulation for complete dissolution. Due to its extremely hydrophobic property, SLC-D011 was not dissolved in water solution (left). To overcome this problem, several edible solutions were tested and monoolein- based solution was selected as a dissolving solution (right). B. SLC-D011 was very stable in solution. For complete dissolution, heating at 80℃ and sonication step were required. However, SLC -D011 was not broken despite of heating […]
and sonication. […] C and D.
Pharmacokinetic analysis of SLC -D011dissolved in monoolein- based solution.

With `CC1(C)Oc2cc3oc(=O)ccc3cc2C[C@@H]1OC/C=C/c1ccccc1` [SLC-D011], on progerin-lamin A binding, the “Effect on interaction of progerin and lamin A” value was “could block the interaction of progerin and lamin A”. Besides, the Solubility in water entry in data set [1] was “very low solubility in water”. Further, in data set [1] (after heating and sonicating), the “Stability in monoolein-based solution” value is on record as “very stable in the solution”.
